We go through four compounds from ChEMBL document CHEMBL4825690, “Synthesis and biological evaluation of chalcone-polyamine conjugates as novel vectorized agents in colorectal and prostate cancer chemotherapy” (Eur J Med Chem, 2021).

What all share (format): functional, cell-based
Assay [1] has as its system DU-145. The assay is described as follows: Antiproliferative activity against human DU145 cells assessed as reduction in cell viability incubated for 48 hr by MTT assay. Particulars: DU-145, 48 h.
In assay [2] the test system is PC-3. The assay is described as follows: Antiproliferative activity against human PC3 cells assessed as reduction in cell viability incubated for 48 hr by MTT assay. The settings on record: PC-3, 48 h.
Assay [3] concerns HT-29. The assay is described as follows: Antiproliferative activity against human HT29 cells assessed as reduction in cell viability incubated for 48 hr by MTT assay. The settings on record: HT-29, 48 h.
Assay [4] deals with HCT-116. In words: Antiproliferative activity against human HCT116 cells assessed as reduction in cell viability incubated for 48 hr by MTT assay. The settings on record: HCT-116, 48 h.

Molecules are shown by their SMILES.

Consider `COc1cc(C(=O)/C=C/c2ccc(OCCCNCCCCN)cc2)cc(OC)c1OC`, for which the concentration for half-maximal inhibition (IC50) in assay [1] is 8.4 µM; in assay [2] it was 20.1 µM; in assay [3], 20.2 µM; in assay [4] it was 12.4 µM.

For `COc1cc(C(=O)/C=C/c2ccc(OCCCNCCCN)cc2)cc(OC)c1OC`, the IC50 was found to be 10.2 µM in assay [1], 20.4 µM in assay [2], 13.7 µM in assay [3] and 21.9 µM in assay [4].

For `COc1cc(C(=O)/C=C/c2ccc(OCCCNCCCCNCCCN)cc2)cc(OC)c1OC`, the concentration for half-maximal inhibition (IC50) was 20.6 µM in assay [1], 32.6 µM in assay [2], 31.8 µM in assay [3] and 20.3 µM in assay [4].

As for `COc1cc(C(=O)/C=C/c2ccc(OCCCNCCCNCCCCNCCCN)cc2)cc(OC)c1OC`, the IC50 in assay [1] is 10.8 µM; in assay [2], 14 µM; in assay [3] it was above 40 µM; in assay [4], 11.8 µM.
